What was measured:
Type in all cases: in vivo
[1] = test system: Green Peach Aphid (Myzus persicae, MYZUPE); test: Bioassay on Green Peach Aphid (GPA), foliar spray on infested cabbage seedlings; conditions: foliar, 72 h, Species GPA (Green Peach Aphid), read-out: GPA (Biological Results, rating)
In short: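 Cabbage seedlings (2-3 true leaves) infested with 20-50 wingless adult and nymph aphids one day before treatment; sprayed to runoff at 200 ppm in 0.025% Tween 20 water with 20% acetone/methanol, four pots per treatment. Held three days at about 25° C; live aphids counted, % control by Abbott's correction versus solvent check.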

[2] = test system: Cabbage Looper (Trichoplusia ni, TRIPNI); test: Bioassay on Cabbage Looper (CL), 128-well diet tray assay; conditions: Trichoplusia ni; Species CL (Cabbage Looper); read-out: CL (Biological Results, rating)
In short: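 Second-instar larvae, one to five per well, placed on artificial diet treated with 50 μg/cm^2 test molecule in 90:10 acetone-water, dried before infestation. Held 5–7 days at 25° C, 14:10 light-dark; percent mortality averaged over eight wells.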

[3] = test system: Yellow Fever Mosquito (Aedes aegypti, AEDSAE); test: Bioassay on Yellow Fever Mosquito (YFM), 96-well plate larval assay; conditions: Species YFM (Yellow Fever Mosquito)
In short: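 Each well was scored for mortality after 3 days at room temperature under a non-evaporative lid. Test molecules came from DMSO masters (4000 ppm stock) diluted with water/acetone 90:10 and dispensed into six replicate plates, which were then infested with roughly 1-day-old larvae in liver-powder water.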

[4] = test system: Beet Armyworm (Spodoptera exigua, LAPHEG); test: Bioassay on Beet Armyworm (BAW), 128-well diet tray assay; conditions: Species BAW (Beet Armyworm), read-out: BAW (Biological Results, rating)
In short: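 In a 128-well format, eight wells per compound received a surface dose of 50 μg/cm^2 on artificial diet. After drying, each well got one to five second instar larvae, held at 25° C. with 14:10 photoperiod. Mortality percentages after five to seven days were averaged.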

| Compound | pest or weed control at 200 µg/mL [1] [%] | pest or weed control at 50 µg/cm2 [2] [%] | YFM (Biological Results, rating) [3] | pest or weed control at 50 µg/cm2 [4] [%] |
| --- | --- | --- | --- | --- |
| O=C(Nc1cccc(F)c1)c1cc(NC(=O)[C@H]2[C@H](c3ccc(Cl)c(Cl)c3)C2(Cl)Cl)ccc1Cl (relative stereo) [F51, trans-2-Chloro-5-(2,2-dichloro-3-(3,4-dichlorophenyl)cyclopropane-1-carboxamido)-N-(3-fluorophenyl)benzamide] | 80 to 100 | 50 to 100 | A (80-100) | 50 to 100 |
| CN(C(=O)c1cc(NC(=O)[C@H]2[C@H](c3cc(Cl)c(Cl)c(Cl)c3)C2(Cl)Cl)ccc1Cl)c1ccc(F)cc1 (relative stereo) [F52, trans-2-Chloro-5-(2,2-dichloro-3-(3,4,5-trichlorophenyl)cyclopropane-1-carboxamido)-N-(4-fluorophenyl)-N-methylbenzamide] | 80 to 100 | 50 to 100 | A (80-100) | 50 to 100 |
| CN(C(=O)c1cc(NC(=O)[C@H]2[C@H](c3ccc(Cl)c(Cl)c3)C2(Cl)Cl)ccc1Cl)c1ccc(F)cc1 (relative stereo) [F53, trans-2-Chloro-5-(2,2-dichloro-3-(3,4-dichlorophenyl)cyclopropane-1-carboxamido)-N-(4-fluorophenyl)-N-methylbenzamide] | 80 to 100 | 50 to 100 | A (80-100) | 50 to 100 |
| Cc1cc(C#N)ccc1NC(=O)c1cc(NC(=O)[C@H]2[C@H](c3cc(Cl)c(Cl)c(Cl)c3)C2(Cl)Cl)ccc1Cl (relative stereo) [F54, trans-2-Chloro-N-(4-cyano-2-methylphenyl)-5-(2,2-dichloro-3-(3,4,5-trichlorophenyl)cyclopropane-1-carboxamido)benzamide] | 0 to 80 | 50 to 100 | A (80-100) | 50 to 100 |
| Cc1cc(C#N)ccc1NC(=O)c1cc(NC(=O)[C@H]2[C@H](c3ccc(Cl)c(Cl)c3)C2(Cl)Cl)ccc1Cl (relative stereo) [F55, trans-2-Chloro-N-(4-cyano-2-methylphenyl)-5-(2,2-dichloro-3-(3,4-dichlorophenyl)cyclopropane-1-carboxamido)benzamide] | 80 to 100 | 50 to 100 | A (80-100) | 50 to 100 |
| CN(C(=O)c1cc(NC(=O)[C@H]2[C@H](c3ccc(Cl)c(Cl)c3)C2(Cl)Cl)ccc1F)c1ccc(F)cc1F (relative stereo) [F64, trans-5-(2,2-Dichloro-3-(3,4-dichlorophenyl)cyclopropane-1-carboxamido)-N-(2,4-difluorophenyl)-2-fluoro-N-methylbenzamide] | 80 to 100 | 50 to 100 | B (More than 0-Less than 80) | 50 to 100 |
| O=C(Nc1ccc(F)cn1)c1cc(NC(=O)[C@H]2[C@H](c3cc(Cl)cc(Cl)c3)C2(Cl)Cl)ccc1Cl (relative stereo) [F76, trans-2-Chloro-5-(2,2-dichloro-3-(3,5-dichlorophenyl)cyclopropane-1-carboxamido)-N-(5-fluoropyridin-2-yl)benzamide] | 80 to 100 | 50 to 100 | B (More than 0-Less than 80) | 50 to 100 |
| CNC(=O)c1ccc(NC(=O)c2cc(NC(=O)[C@H]3[C@H](c4cc(Cl)cc(Cl)c4)C3(Cl)Cl)ccc2Cl)cn1 (relative stereo) [F77, trans-5-(2-Chloro-5-(2,2-dichloro-3-(3,5-dichlorophenyl)cyclopropane-1-carboxamido)benzamido)-N-methylpicolinamide] | 80 to 100 | 50 to 100 | A (80-100) | 50 to 100 |
| O=C(Nc1ccc(F)cc1)c1cc(NC(=O)[C@H]2[C@H](c3ccc(OC(F)(F)F)c(Cl)c3)C2(Cl)Cl)ccc1Cl (relative stereo) [F79, trans-2-Chloro-5-(2,2-dichloro-3-(3-chloro-4-(trifluoromethoxy)phenyl)cyclopropane-1-carboxamido)-N-(4-fluorophenyl)benzamide] | 80 to 100 | 50 to 100 | B (More than 0-Less than 80) | 50 to 100 |
| CN(C(=O)c1cc(NC(=O)[C@H]2[C@H](c3ccc(OC(F)(F)F)c(Cl)c3)C2(Cl)Cl)ccc1Cl)c1ccc(F)cc1 (relative stereo) [F80, trans-2-Chloro-5-(2,2-dichloro-3-(3-chloro-4-(trifluoromethoxy)phenyl)cyclopropane-1-carboxamido)-N-(4-fluorophenyl)-N-methylbenzamide] | 80 to 100 | 50 to 100 | A (80-100) | 50 to 100 |
| O=C(Nc1ccc(F)cc1)c1cc(NC(=O)[C@H]2[C@H](c3cc(Cl)cc(C(F)(F)F)c3)C2(Cl)Cl)ccc1Cl (relative stereo) [F87, trans-2-Chloro-5-(2,2-dichloro-3-(3-chloro-5-(trifluoromethyl)phenyl)cyclopropane-1-carboxamido)-N-(4-fluorophenyl)benzamide] | 80 to 100 | 50 to 100 | A (80-100) | 50 to 100 |
| CCN(C(=O)c1cc(NC(=O)[C@H]2[C@H](c3cc(Cl)cc(Cl)c3)C2(Cl)Cl)ccc1Cl)c1ccc(F)cc1 (relative stereo) [F99, trans-2-Chloro-5-(2,2-dichloro-3-(3,5-dichlorophenyl)cyclopropane-1-carboxamido)-N-ethyl-N-(4-fluorophenyl)benzamide] | 80 to 100 | 50 to 100 | B (More than 0-Less than 80) | 50 to 100 |
| CCCN(C(=O)c1cc(NC(=O)[C@H]2[C@H](c3cc(Cl)cc(Cl)c3)C2(Cl)Cl)ccc1Cl)c1ccc(F)cc1 (relative stereo) [F101, trans-2-Chloro-5-(2,2-dichloro-3-(3,5-dichlorophenyl)cyclopropane-1-carboxamido)-N-(4-fluorophenyl)-N-propylbenzamide] | 0 to 80 | 50 to 100 | A (80-100) | 50 to 100 |
| O=C(Nc1ccc(F)cc1)c1cc(NC(=O)[C@H]2[C@H](c3cc(Cl)cc(Cl)c3)C2(Cl)Cl)ccc1F (relative stereo) [F129, trans-5-(2,2-Dichloro-3-(3,5-dichlorophenyl)cyclopropane-1-carboxamido)-2-fluoro-N-(4-fluorophenyl)benzamide] | 80 to 100 | 50 to 100 | A (80-100) | 50 to 100 |
| O=C(Nc1ccc(F)cc1)c1nc(NC(=O)[C@H]2[C@H](c3cc(Cl)cc(Cl)c3)C2(Cl)Cl)ccc1Cl (relative stereo) [F131, trans-3-Chloro-6-(2,2-dichloro-3-(3,5-dichlorophenyl)cyclopropane-1-carboxamido)-N-(4-fluorophenyl)picolinamide] | 0 to 80 | 50 to 100 | A (80-100) | 50 to 100 |
| O=C(Nc1ccc[n+]([O-])c1)c1cc(NC(=O)[C@H]2[C@H](c3cc(Cl)cc(Cl)c3)C2(Cl)Cl)ccc1Cl (relative stereo) [F139, trans-3-(2-chloro-5-(2,2-dichloro-3-(3,5-dichlorophenyl)cyclopropane-1-carboxamido)benzamido)pyridine 1-oxide] | 0 to 80 | 50 to 100 | A (80-100) | 50 to 100 |
| O=C(Nc1cccnc1F)c1cc(NC(=O)[C@H]2[C@H](c3cc(Cl)cc(Cl)c3)C2(Cl)Cl)ccc1Cl (relative stereo) [F156, trans-2-Chloro-5-(2,2-dichloro-3-(3,5-dichlorophenyl)cyclopropane-1-carboxamido)-N-(2-fluoropyridin-3-yl)benzamide] | 80 to 100 | 50 to 100 | B (More than 0-Less than 80) | 50 to 100 |
| O=C(Nc1c(F)cccc1F)c1cc(NC(=O)[C@H]2[C@H](c3cc(Cl)cc(Cl)c3)C2(Br)Br)ccc1Cl (relative stereo) [F162, trans-2-Chloro-5-(2,2-dibromo-3-(3,5-dichlorophenyl)cyclopropane-1-carboxamido)-N-(2,6-difluorophenyl)benzamide] | 0 to 80 | 50 to 100 | B (More than 0-Less than 80) | 50 to 100 |

Source: patent US10219516B2, “Molecules having pesticidal utility, and intermediates, compositions, and processes, related thereto” (priority 2015, dated 2019)
